Data on 25 compounds can be found in patent US20200079758A1, “[4-(PHENYLSULFONYL)PIPERAZIN-1-YL](1H-1,2,3-TRIAZOL-4-YL)METHANONES” (priority 2016, published 2020).

The structures appear in SMILES notation.

The assay concerns the target T1, recombinant human AKR1C3 (Homo sapiens, UniProt P42330).
T1 construct: GST (cleaved yes); made in house; host or cells: E. coli
T1 sequence (P42330 1-323): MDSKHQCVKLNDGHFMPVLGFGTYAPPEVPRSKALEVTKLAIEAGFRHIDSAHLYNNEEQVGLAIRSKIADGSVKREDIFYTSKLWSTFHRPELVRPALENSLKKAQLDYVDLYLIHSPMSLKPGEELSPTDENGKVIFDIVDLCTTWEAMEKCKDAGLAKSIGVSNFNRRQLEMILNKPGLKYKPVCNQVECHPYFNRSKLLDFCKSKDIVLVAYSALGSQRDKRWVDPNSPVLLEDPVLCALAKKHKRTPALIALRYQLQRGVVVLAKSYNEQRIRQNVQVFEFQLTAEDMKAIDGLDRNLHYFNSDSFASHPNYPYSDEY
The experiment in a line: AKR1C3-inhibitory activity assay (generation of Coumberol from Coumberone). It counts as biochemical. The settings on record: Coumberone 0.3 μM, NADPH 10 μM, 22° C., typically 90 min, average or median values. The protocol:
The AKR1C3-inhibitory activity of the substances of the present invention was measured in the AKR1C3 assay described in the paragraphs below.
Essentially, the enzyme activity is measured by quantification of the generation of Coumberol from Coumberone (Halim et al. J. AM. CHEM. SOC. 2008, 130:14123-14128 and Yee et al. Proc. Natl. Acad. Sci. USA 2006, 103:13304-13309). In this test, the increase of the highly fluorescent Coumberol by NADPH- (nicotinamide adenine dinucleotide phosphate)-dependent reduction of the non-fluorescent Coumberone by AKR1C3 was determined.
The enzyme used was recombinant human AKR1C3 (Aldo-keto reductase family 1 member C3; GenBank Accession No. NM_003739). This was expressed in E. coli as GST (glutathione S transferase) fusion protein and purified by glutathione Sepharose affinity chromatography. The GST was removed by digestion with thrombin and subsequent size exclusion chromatography (Dufort, I., Rheault, P., Huang, X F., Soucy, P., and Luu-The, V., Endocrinology 140, 568-574 (1999)).
For the assay, 50 nl of a 100-fold concentrated solution of the test substance in DMSO were pipetted into a black low-volume 384-well microtiter plate (Greiner Bio-One, Frickenhausen, Germany), 2.5 μl of a solution of AKR1C3 in assay buffer [50 mM potassium phosphate buffer pH 7, 1 mM DTT, 0.0022% (w/v) Pluronic F-127, 0.01% BSA (w/v) and protease inhibitor cocktail (Complete, EDTA-free Protease Inhibitor Cocktail from Roche)] were added and the mixture was incubated for 15 min to allow pre-binding of the substances to the enzyme prior to the enzyme reaction. The enzyme reaction was then started by addition of 2.5 μl of a solution of NADPH (20 μM→final concentration in 5 μl of assay volume is 10 μM) and Coumberone (0.6 μM→final concentration in 5 μl of assay volume is 0.3 μM) in assay buffer, and the resulting mixture was incubated at 22° C. for the reaction time of typically 90 min. The concentration of the AKR1C3 and the reaction time was adapted to the respective activity of the enzyme preparation and adjusted such that the assay was carried out in the linear range. Typical AKR1C3 concentrations were in the region of 1 nM. The reaction was stopped by addition of 2.5 μl of a stop solution consisting of 3 μM EM-1404 as inhibitor (U.S. Pat. No. 6,541,463) in 50 mM HEPES pH7.5 (3 μM EM-1404→final concentration in 7.5 μl of assay volume is 1 μM). The fluorescence of the Coumberole was then measured at 520 nm (excitation at 380 nm) using a suitable measuring instrument (Pherastar from BMG Labtechnologies). The intensity of the fluorescence was used as a measure of the amount of Coumberole formed and thus of the enzyme activity of AKR1C3. The data were normalized (enzyme reaction without inhibitor=0% inhibition; all other assay components, but no enzyme=100% inhibition).
As usually defined, the IC50 is the concentration that inhibits the measured activity by half. Regarding `Cc1ccc(C)c(S(=O)(=O)N2C[C@@H](C)N(C(=O)c3cnn[nH]3)[C@@H](C)C2)c1` [Example 99, {(2R,6S)-4-[(2,5-dimethylphenyl)sulfonyl]-2,6-dimethylpiperazin-1-yl}(1H-1,2,3-triazol-5-yl)methanone], the IC50 stood at 3 nM.

Consider `C[C@@H]1CN(C(=O)c2cnn[nH]2)[C@@H](C)CN1S(=O)(=O)c1cccc(Br)c1` [Example 78, {(2S,5R)-4-[(3-bromophenyl)sulfonyl]-2,5-dimethylpiperazin-1-yl}(1H-1,2,3-triazol-5-yl)methanone], for which the IC50 worked out at 1 nM.

As for `C[C@@H]1CN(S(=O)(=O)c2ccccc2C(F)(F)F)C[C@H](C)N1C(=O)c1c[nH]nn1` [Example 47, [(2R,6S)-2,6-dimethyl-4-{[2-(trifluoromethyl)phenyl]sulfonyl}piperazin-1-yl](1H-1,2,3-triazol-4-yl)methanone], the IC50 was 2 nM.

Regarding `C[C@@H]1CN(C(=O)c2cnn[nH]2)C[C@H](C)N1S(=O)(=O)c1cc(Cl)cc(Cl)c1` [Example 40, {(3R,5S)-4-[(3,5-dichlorophenyl)sulfonyl]-3,5-dimethylpiperazin-1-yl}(1H-1,2,3-triazol-5-yl)methanone], the IC50 came to 2 nM.

For the compound `C[C@@H]1CN(S(=O)(=O)c2ccc(Br)cc2)C[C@H](C)N1C(=O)c1cnn[nH]1` [Example 93, {(2R,6S)-4-[(4-bromophenyl)sulfonyl]-2,6-dimethylpiperazin-1-yl}(1H-1,2,3-triazol-5-yl)methanone], the IC50 turned out to be 30 nM.

`CC1(C)CN(C(=O)c2c[nH]nn2)CCN1S(=O)(=O)c1cccc(Cl)c1` [Example 21, {4-[(3-chlorophenyl)sulfonyl]-3,3-dimethylpiperazin-1-yl}(1H-1,2,3-triazol-4-yl)methanone]: the IC50 was found to be 3 nM.

As for `C[C@@H]1CN(S(=O)(=O)c2cccc(F)c2)C[C@H](C)N1C(=O)c1c[nH]nn1` [Example 52, {(2R,6S)-4-[(3-fluorophenyl)sulfonyl]-2,6-dimethylpiperazin-1-yl}(1H-1,2,3-triazol-4-yl)methanone], the IC50 was found to be 9 nM.

Regarding `Cc1ccc(Cl)cc1S(=O)(=O)N1CCN(C(=O)c2cnn[nH]2)CC1(C)C` [Example 129, {4-[(5-chloro-2-methylphenyl)sulfonyl]-3,3-dimethylpiperazin-1-yl}(1H-1,2,3-triazol-5-yl)methanone], the IC50 is 6 nM.

Take `C[C@@H]1CN(S(=O)(=O)c2ccccc2C#N)[C@@H](C)CN1C(=O)c1cnn[nH]1` (stereo in doubt) [Example 14, 2-{[(2S,5R)-2,5-dimethyl-4-(1H-1,2,3-triazol-5-ylcarbonyl)piperazin-1-yl]sulfonyl}benzonitrile]: the IC50 worked out at 439 nM.

Regarding `C[C@@H]1CN(C(=O)c2cnn[nH]2)[C@@H](C)CN1S(=O)(=O)c1cc(C(F)(F)F)cc(C(F)(F)F)c1` [Example 90, [(2S,5R)-4-{[3,5-bis(trifluoromethyl)phenyl]sulfonyl}-2,5-dimethylpiperazin-1-yl](1H-1,2,3-triazol-5-yl)methanone], the IC50 is 5 nM.

On to `C[C@@H]1CN(S(=O)(=O)c2cc(Cl)ccc2Cl)C[C@H](C)N1C(=O)c1c[nH]nn1` [Example 43, {(2R,6S)-4-[(2,5-dichlorophenyl)sulfonyl]-2,6-dimethylpiperazin-1-yl}(1H-1,2,3-triazol-4-yl)methanone], for which the IC50 turned out to be 2 nM.

For `C[C@@H]1CN(C(=O)c2cnn[nH]2)[C@@H](C)CN1S(=O)(=O)c1cc(Cl)ccc1Cl` [Example 4, {(2S,5R)-4-[(2,5-dichlorophenyl)sulfonyl]-2,5-dimethylpiperazin-1-yl}(1H-1,2,3-triazol-5-yl)methanone], the IC50 amounted to 2 nM.

In the case of `CC1(C)CN(C(=O)c2cnn[nH]2)CCN1S(=O)(=O)c1cc(F)ccc1Cl` [Example 136, {4-[(2-chloro-5-fluorophenyl)sulfonyl]-3,3-dimethylpiperazin-1-yl}(1H-1,2,3-triazol-5-yl)methanone], the IC50 is 5 nM.

Consider `COc1ccccc1S(=O)(=O)N1CCN(C(=O)c2cnn[nH]2)CC1(C)C` [Example 130, {4-[(2-methoxyphenyl)sulfonyl]-3,3-dimethylpiperazin-1-yl}(1H-1,2,3-triazol-5-yl)methanone], for which the IC50 is 38 nM.

Consider `C[C@@H]1CN(C(=O)c2cnn[nH]2)[C@@H](C)CN1S(=O)(=O)c1ccc(Cl)cc1` [Example 63, {(2S,5R)-4-[(4-chlorophenyl)sulfonyl]-2,5-dimethylpiperazin-1-yl}(1H-1,2,3-triazol-5-yl)methanone], for which the IC50 is 3 nM.

On to `C[C@@H]1CN(C(=O)c2cnn[nH]2)[C@@H](C)CN1S(=O)(=O)c1ccccc1OC(F)(F)F` [Example 72, [(2S,5R)-2,5-dimethyl-4-{[2-(trifluoromethoxy)phenyl]sulfonyl}piperazin-1-yl](1H-1,2,3-triazol-5-yl)methanone], for which the IC50 was found to be 2 nM.

With `C[C@@H]1CN(C(=O)c2cnn[nH]2)[C@@H](C)CN1S(=O)(=O)Cc1c(F)cccc1F` [Example 88, {(2S,5R)-4-[(2,6-difluorobenzyl)sulfonyl]-2,5-dimethylpiperazin-1-yl}(1H-1,2,3-triazol-5-yl)methanone], the IC50 stood at 79 nM.

As for `CC1(C)CN(C(=O)c2cnn[nH]2)CCN1S(=O)(=O)c1c(F)cccc1F` [Example 35, {4-[(2,6-difluorophenyl)sulfonyl]-3,3-dimethylpiperazin-1-yl}(1H-1,2,3-triazol-5-yl)methanone], the IC50 was 46 nM.

Regarding `CC1(C)CN(C(=O)c2cnn[nH]2)CCN1S(=O)(=O)c1cccc2c1OCC2` [Example 135, [4-(2,3-dihydro-1-benzofuran-7-ylsulfonyl)-3,3-dimethylpiperazin-1-yl](1H-1,2,3-triazol-5-yl)methanone], the IC50 worked out at 4 nM.

Turning to `C[C@@H]1CN(C(=O)c2cnn[nH]2)[C@@H](C)CN1S(=O)(=O)c1ccc(O)cc1` [Example 17, {(2S,5R)-4-[(4-hydroxyphenyl)sulfonyl]-2,5-dimethylpiperazin-1-yl}(1H-1,2,3-triazol-5-yl)methanone], the IC50 is 12 nM.

As to `C[C@@H]1CN(C(=O)c2cnn[nH]2)[C@@H](C)CN1S(=O)(=O)c1cccc(S(C)(=O)=O)c1` [Example 81, [(2S,5R)-2,5-dimethyl-4-{[3-(methylsulfonyl)phenyl]sulfonyl}piperazin-1-yl](1H-1,2,3-triazol-5-yl)methanone], the IC50 came out at 32 nM.

Turning to `C[C@@H]1CN(C(=O)c2cnn[nH]2)[C@@H](C)CN1S(=O)(=O)c1ccc(F)cc1` [Example 66, {(2S,5R)-4-[(4-fluorophenyl)sulfonyl]-2,5-dimethylpiperazin-1-yl}(1H-1,2,3-triazol-5-yl)methanone], the IC50 is 4 nM.

For the compound `C[C@@H]1CN(S(=O)(=O)c2c(F)cccc2F)C[C@H](C)N1C(=O)c1c[nH]nn1` [Example 53, {(2R,6S)-4-[(2,6-difluorophenyl)sulfonyl]-2,6-dimethylpiperazin-1-yl}(1H-1,2,3-triazol-4-yl)methanone], the IC50 is 9 nM.

For `C[C@@H]1CN(C(=O)c2cnn[nH]2)[C@@H](C)CN1S(=O)(=O)c1ccc(Br)cc1` [Example 61, {(2S,5R)-4-[(4-bromophenyl)sulfonyl]-2,5-dimethylpiperazin-1-yl}(1H-1,2,3-triazol-5-yl)methanone], the IC50 turned out to be 4 nM.

`COc1ccc(S(=O)(=O)N2CCN(C(=O)c3cnn[nH]3)CC2(C)C)cc1OC` [Example 118, {4-[(3,4-dimethoxyphenyl)sulfonyl]-3,3-dimethylpiperazin-1-yl}(1H-1,2,3-triazol-5-yl)methanone]: the IC50 turned out to be 77 nM.
